# Laboratory results from US20240316136A1, “ANESTHETIC METHOD OF SPOTTED SEABASS WITH PLANT ESSENTIAL OILS” (Shanghai Ocean University, priority 2024, published 2024).
# How the values were obtained:
# Type in all cases: in vivo, Lateolabrax maculatus
# [1] = tested on: spotted seabass; assay: Sedation, anesthesia induction and resuscitation time of spotted seabass in anesthetic bath; set-up: key to Stage IV (deep anesthesia) time / Resuscitation time / Stage I (light sedation) time / Stage II (deep sedation) time / Stage III (light anesthesia) time: —: No anesthetic effect
# Protocol: • 1. Healthy spotted seabass with uniform sizes and uniform respiration rates were selected and acclimated for 24 h. During the acclimatization period, the water temperature was 22±1° C., the salinity was 16%, the dissolved oxygen was 6 mg/L, pH was 7.5, and the fish-water ratio was 1:50. The metabolic wastes of the spotted seabass were discharged during acclimatization period. • 2. The emulsified Cinnamomum camphora essential oils were added to the aquariums respectively. The water temperature was controlled at 22±1° C. […] The spotted seabass were transferred to aquariums (5 fish per aquarium) with different concentrations of the Cinnamomum camphora essential oil, MS-222 and linalool anesthetics, and anesthetic concentrations, sedation concentrations and duration of anesthesia were recorded for the spotted seabass. • 4. The fish were extracted once deep anesthesia was achieved. Recovery was defined as the restoration of fish to their typical swimming behavior; the resuscitation time of the spotted seabass were recorded. • 5. The optimal concentration range was obtained, and oxidative stress and tissue injury were measured. [table] One-way analysis of variance (ANOVA) was used to evaluate the data (anesthetic induction and recovery time) using SPSS 26.0 software (SPSS Inc., Chicago, IL, USA). The significant variation was determined using Duncan's multiple range test (P<0.05). Graphs were created using Origin software.
# [2] = tested on: spotted seabass gill tissue; assay: Gill tissue histopathology by light microscope after anesthesia
# Protocol: • 1. Healthy spotted seabass with uniform sizes and uniform respiration rates were selected and acclimated for 24 h. During the acclimatization period, the water temperature was 22±1° C., the salinity was 16%, the dissolved oxygen was 6 mg/L, pH was 7.5, and the fish-water ratio was 1:50. The metabolic wastes of the spotted seabass were discharged during acclimatization period. • 2. The emulsified Cinnamomum camphora essential oils were added to the aquariums respectively. The water temperature was controlled at 22±1° C. The concentrations of the emulsified Cinnamomum camphora essential oil were 10, 20, 30, 50, 100, 150, 200 mg/L, respectively, and the same concentrations of MS-222 anesthesia solution and linalool solution were prepared at the same time. • 3. The spotted seabass were transferred to aquariums (5 fish per aquarium) with different concentrations of the Cinnamomum camphora essential oil, MS-222 and linalool anesthetics, and anesthetic concentrations, sedation concentrations and duration of anesthesia were recorded for the spotted seabass. • 4. The fish were extracted once deep anesthesia was achieved. Recovery was defined as the restoration of fish to their typical swimming behavior; the resuscitation time of the spotted seabass were recorded. • 5. The optimal concentration range was obtained, and oxidative stress and tissue injury were measured. […]
# [3] = tested on: spotted seabass; assay: Blood biochemical analysis (RBC, HCT, HGB); settings: after deep anesthesia; comparison between anesthetic groups, p<0.05
# Protocol: (§1) In accordance with the principles and guiding regulations established by the Animal Protection and Utilization Committee of Shanghai Ocean University (SHOU-DW-2022-059), 200 mg/L MS-222 was used to anesthetize fish. Venous-arterial blood samples were obtained from the caudal vein using a 1 mL syringe with 10% EDTA as an anticoagulant and then preserved in anticoagulation tubes. In addition, another portion of the blood was collected without anticoagulant, then kept at 4° C. for a duration of 12 hours for stationary. The coagulated blood was centrifuged at 4000×g for 20 min at 4° C. The serum was extracted and placed in the refrigerator at −40° C. for testing.
# Red blood cell count (RBC), haematocrit (HCT), and hemoglobin (HGB) in blood samples were measured in a Myriad Veterinary Automatic Blood Cell Analyser (BC-2800vet, Shenzhen, China).
# [4] = tested on: spotted seabass; assay: Energy metabolism indexes (glucose, lactic acid); settings: P<0.05
# Protocol: as §1
# (§2) Acid phosphatase (ACP), glucose (GLU) and lactic acid (LD) kits (Nanjing Jiancheng Bioengineering Institute, Nanjing, China) were used to measure ACP, GLU and LD levels.
# [5] = tested on: spotted seabass; assay: Oxidative stress indicators (SOD, CAT, GSH-Px) in blood
# Protocol: as §1
# Superoxide Dismutase (SOD), Catalase (CAT) and Glutathione Peroxidase (GSH-Px) kits (Nanjing Jiancheng Bioengineering Institute, Nanjing, China) were used to determine SOD, CAT and GSH-Px activities in blood.
# [6] = tested on: spotted seabass; assay: Immunological indicators (ACP/AKP, IgM, LZM) in serum
# Protocol: as §1, §2
# Lysozyme (LZM) activity was determined by the method of De Souza et al. Serum immunoglobulin M (IgM) concentration was measured using a fish ELISA kit (Nanjing Jiancheng Bioengineering Institute, Nanjing, China).
# [7] = 100 mg/L in water, listed as linalool
# [8] = after 24 h of recovery, vs MS-222 and Cinnamomum camphora essential oil
# [9] = after 24 h of recovery, vs initial
smiles,measurement,setting,value
"C=CC(C)(O)CCC=C(C)C (centres unmarked) [Linalool, 1,6-Octadien-3-ol,3,7-dimethyl]",Resuscitation time,[1]; 5 mg/L in water,—
same,Stage I (light sedation) time,[1]; 5 mg/L in water,—
same,Stage II (deep sedation) time,[1]; 5 mg/L in water,—
same,Stage III (light anesthesia) time,[1]; 5 mg/L in water,—
same,Stage IV (deep anesthesia) time,[1]; 5 mg/L in water,—
same,Resuscitation time,[1]; 10 mg/L in water,—
same,Stage I (light sedation) time,[1]; 10 mg/L in water,88.67 ± 3.21 s
same,Stage II (deep sedation) time,[1]; 10 mg/L in water,—
same,Stage III (light anesthesia) time,[1]; 10 mg/L in water,—
same,Stage IV (deep anesthesia) time,[1]; 10 mg/L in water,—
same,Resuscitation time,[1]; 20 mg/L in water,—
same,Stage I (light sedation) time,[1]; 20 mg/L in water,70.00 ± 3.00 s
same,Stage II (deep sedation) time,[1]; 20 mg/L in water,97.00 ± 4.58 s
same,Stage III (light anesthesia) time,[1]; 20 mg/L in water,—
same,Stage IV (deep anesthesia) time,[1]; 20 mg/L in water,—
same,Resuscitation time,[1]; 30 mg/L in water,—
same,Stage I (light sedation) time,[1]; 30 mg/L in water,60.00 ± 3.00 s
same,Stage II (deep sedation) time,[1]; 30 mg/L in water,84.67 ± 3.51 s
same,Stage III (light anesthesia) time,[1]; 30 mg/L in water,103.33 ± 3.51 s
same,Stage IV (deep anesthesia) time,[1]; 30 mg/L in water,—
same,Resuscitation time,[1]; 50 mg/L in water,235.00 ± 2.00 s
same,Stage I (light sedation) time,[1]; 50 mg/L in water,42.67 ± 3.51 s
same,Stage III (light anesthesia) time,[1]; 50 mg/L in water,115.00 ± 4.00 s
same,Stage IV (deep anesthesia) time,[1]; 50 mg/L in water,323.33 ± 2.52 s
same,Resuscitation time,[1]; 100 mg/L in water,255.33 ± 2.08 s
same,Stage I (light sedation) time,[1]; 100 mg/L in water,31.67 ± 1.15 s
same,Stage III (light anesthesia) time,[1]; 100 mg/L in water,103.67 ± 2.52 s
same,Stage IV (deep anesthesia) time,[1]; 100 mg/L in water,213.00 ± 1.73 s
same,Resuscitation time,[1]; [7],344.00 s
same,Stage IV (deep anesthesia) time,[1]; [7],155.33 s
same,Resuscitation time,[1]; 150 mg/L in water,270.00 ± 3.00 s
same,Stage I (light sedation) time,[1]; 150 mg/L in water,22.33 ± 2.52 s
same,Stage II (deep sedation) time,[1]; 150 mg/L in water,44.00 ± 2.65 s
same,Stage III (light anesthesia) time,[1]; 150 mg/L in water,91.67 ± 1.53 s
same,Stage IV (deep anesthesia) time,[1]; 150 mg/L in water,155.33 ± 3.51 s
same,Resuscitation time,[1]; 200 mg/L in water,310.00 ± 3.00 s
same,Stage I (light sedation) time,[1]; 200 mg/L in water,16.00 ± 1.00 s
same,Stage II (deep sedation) time,[1]; 200 mg/L in water,37.00 ± 1.73 s
same,Stage III (light anesthesia) time,[1]; 200 mg/L in water,86.00 ± 2.65 s
same,Stage IV (deep anesthesia) time,[1]; 200 mg/L in water,141.00 ± 5.29 s
same,Optimal anesthetic concentration,[1]; criterion: induction in around 3 min and recovery within 5 min,100 mg/L
same,Concentration showing deep sedation,[1]; in vivo,20 mg/L
same,Concentration showing light anesthesia effect (Stage III),[1]; in vivo,30 mg/L
same,Concentration showing light sedation effect (Stage I),[1]; in vivo,10 mg/L
same,Minimum concentration required to achieve profound anesthesia (Stage IV),"[1]; in vivo, iv",50 mg/L
same,Gill tissue histopathological changes,[2],swollen lamellar epithelium
same,Percentage of hematocrit,[3],lower
same,Glucose concentration,[4]; [8],higher
same,Lactic acid concentration,[4]; [8],lower
same,Glucose concentration,"[4]; after anesthesia, comparison between anesthetic groups",Greater
same,Lactic acid level,"[4]; after anesthesia, vs MS-222 and Cinnamomum camphora essential oil",greater
same,GSH-Px activity,[5]; [9],still higher than the initial levels
same,SOD activity,[5]; [9],still higher than the initial levels
same,"SOD, CAT and GSH-Px activities",[5]; after anesthesia,increasing trend
same,IgM concentration,[6]; after anesthesia,decreased
same,LZM activity,"[6]; after anesthesia, change from initial",increased
same,LZM activity,"[6]; after anesthesia, comparison between anesthetic groups, P<0.05",higher
same,ACP activity,"[6]; after anesthesia, vs MS-222 and Cinnamomum camphora essential oil, P<0.05",higher
same,AKP activity,[6]; on exposure to anesthetic,increased
